The test concerns the target human TYK2 (JH2domain-pseudokinase) (Homo sapiens (Human), UniProt P29597). The test is described as follows: TYK2 JH2 Domain Binding Assay (KINOMEscan, DiscoveRx). Particulars: 11-point dilution, duplicate. Put shortly:
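Kd from duplicate 11-point 3-fold dilutions starting at 30,000 nM, fitted by Hill equation with slope fixed at −1. Compounds (final 0.9% DMSO) displace DNA-tagged HEK293-expressed TYK2 JH2 fusion (<0.1 nM) from ligand-coated beads over 1 h at room temperature; eluted kinase read by qPCR.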
human TYK2 (JH2domain-pseudokinase), sequence (P29597 556-888): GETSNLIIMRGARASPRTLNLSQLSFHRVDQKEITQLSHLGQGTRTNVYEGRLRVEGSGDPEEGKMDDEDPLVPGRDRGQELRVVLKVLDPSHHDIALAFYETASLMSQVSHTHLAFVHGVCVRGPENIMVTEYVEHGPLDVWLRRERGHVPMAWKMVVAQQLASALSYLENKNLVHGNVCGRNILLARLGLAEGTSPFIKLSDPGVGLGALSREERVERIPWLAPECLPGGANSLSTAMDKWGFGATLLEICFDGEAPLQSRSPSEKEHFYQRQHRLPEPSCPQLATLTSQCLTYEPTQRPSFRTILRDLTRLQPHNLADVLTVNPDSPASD
In general, Kd refers to a measure of binding affinity in units of concentration. On to `Cc1nc2c(Nc3ccc(-c4cncn4C)cc3S(C)(=O)=O)cc(NC(=O)C3CC3)nc2[nH]1` [I-215, N-(2-methyl-7-((4-(1-methyl-1H-imidazol-5-yl)-2-(methylsulfonyl)phenyl)amino)-3H-imidazo[4,5-b]pyridin-5-yl)cyclopropanecarboxamide], for which the Kd is less than 0.1 nM.

Consider `Cc1cc(-c2ccc(Nc3cc(NC(=O)C4CC4)nc4[nH]c(C(F)F)nc34)c(S(C)(=O)=O)c2)nn1C` [I-216, N-(2-(difluoromethyl)-7-((4-(1,5-dimethyl-1H-pyrazol-3-yl)-2-(methylsulfonyl)phenyl)amino)-3H-imidazo[4,5-b]pyridin-5-yl)cyclopropanecarboxamide], for which the Kd is less than 0.1 nM.

On to `Cc1nc2c(Nc3ccc(-c4cc(C)n(C)n4)cc3S(C)(=O)=O)cc(NC(=O)C3CC3)nc2[nH]1` [I-217, N-(7-((4-(1,5-dimethyl-1H-pyrazol-3-yl)-2-(methylsulfonyl)phenyl)amino)-2-methyl-3H-imidazo[4,5-b]pyridin-5-yl)cyclopropanecarboxamide], for which the Kd is less than 0.1 nM. For the molecule `CN(c1cc([C@H]2CCCCO2)ccc1Nc1cc(NC(=O)C2CC2)nc2[nH]c(C(F)F)nc12)S(C)(=O)=O` [I-218, (R)—N-(2-(difluoromethyl)-7-((2-(N-methylmethylsulfonamido)-4-(tetrahydro-2H-pyran-2-yl)phenyl)amino)-3H-imidazo[4,5-b]pyridin-5-yl)cyclopropanecarboxamide], the Kd lay within 0.1 to 0.5 nM. `CN(c1cc([C@@H]2CCCCO2)ccc1Nc1cc(NC(=O)C2CC2)nc2[nH]c(C(F)F)nc12)S(C)(=O)=O` [I-219, (S)—N-(2-(difluoromethyl)-7-((2-(N-methylmethylsulfonamido)-4-(tetrahydro-2H-pyran-2-yl)phenyl)amino)-3H-imidazo[4,5-b]pyridin-5-yl)cyclopropanecarboxamide] showed a Kd of 0.1 to 0.5 nM.

In the case of `CS(=O)(=O)c1cc(C2CCC2)ccc1Nc1cc(NC(=O)C2CC2)nc2[nH]c(C(F)F)nc12` [I-220, N-(7-((4-cyclobutyl-2-(methylsulfonyl)phenyl)amino)-2-(difluoromethyl)-3H-imidazo[4,5-b]pyridin-5-yl)cyclopropanecarboxamide], the Kd lay in the range of 1 to 10 nM. For `Cc1nc2c(Nc3ccc(C4CCC4)cc3S(C)(=O)=O)cc(NC(=O)C3CC3)nc2[nH]1` [I-221, N-(7-((4-cyclobutyl-2-(methylsulfonyl)phenyl)amino)-2-methyl-3H-imidazo[4,5-b]pyridin-5-yl)cyclopropanecarboxamide], the Kd was in the range of 0.5 to 1 nM. For the molecule `COCc1ccc(Nc2cc(NC(=O)C3CC3)nc3[nH]c(C(F)F)nc23)c(S(C)(=O)=O)c1` [I-222, N-(2-(difluoromethyl)-7-((4-(methoxymethyl)-2-(methylsulfonyl)phenyl)amino)-3H-imidazo[4,5-b]pyridin-5-yl)cyclopropanecarboxamide], the Kd is 0.1 to 0.5 nM.

In turn, `COCc1ccc(Nc2cc(NC(=O)C3CC3)nc3[nH]c(C)nc23)c(S(C)(=O)=O)c1` [I-223, N-(7-((4-(methoxymethyl)-2-(methylsulfonyl)phenyl)amino)-2-methyl-3H-imidazo[4,5-b]pyridin-5-yl)cyclopropanecarboxamide] yielded a dissociation constant (Kd) of 0.1 to 0.5 nM.

`Cc1nc2c(Nc3ccc(-c4ccn(C)n4)cc3S(C)(=O)=O)cc(NC(=O)[C@@H]3C[C@@H]3F)nc2[nH]1` [I-224, (1S,2S)-2-fluoro-N-(2-methyl-7-((4-(1-methyl-1H-pyrazol-3-yl)-2-(methylsulfonyl)phenyl)amino)-3H-imidazo[4,5-b]pyridin-5-yl)cyclopropane-1-carboxamide] displayed a dissociation constant (Kd) of less than 0.1 nM. Turning to `Cc1nc2c(Nc3ccc(-c4ccn(C)n4)cc3S(C)(=O)=O)cc(NC(=O)[C@H]3C[C@H]3F)nc2[nH]1` [I-225, (1R,2R)-2-fluoro-N-(2-methyl-7-((4-(1-methyl-1H-pyrazol-3-yl)-2-(methylsulfonyl)phenyl)amino)-3H-imidazo[4,5-b]pyridin-5-yl)cyclopropane-1-carboxamide], the Kd fell in the range of 0.1 to 0.5 nM. In the case of `Cc1nc2c(Nc3ccc(C4CCOCC4)cc3S(C)(=O)=O)cc(NC(=O)C3CC3)nc2[nH]1` [I-226, N-(2-methyl-7-((2-(methylsulfonyl)-4-(tetrahydro-2H-pyran-4-yl)phenyl)amino)-3H-imidazo[4,5-b]pyridin-5-yl)cyclopropanecarboxamide], the Kd was in the range of 0.1 to 0.5 nM. `Cc1nc2c(Nc3ccc(-c4cn(C)cn4)cc3S(C)(=O)=O)cc(NC(=O)[C@H]3CC3(F)F)nc2[nH]1` [I-227, (R)-2,2-difluoro-N-(2-methyl-7-((4-(1-methyl-1H-imidazol-4-yl)-2-(methylsulfonyl)phenyl)amino)-3H-imidazo[4,5-b]pyridin-5-yl)cyclopropane-1-carboxamide] showed a Kd of 0.1 to 0.5 nM. Take `Cc1nc2c(Nc3ccc(-c4cn(C)cn4)cc3S(C)(=O)=O)cc(NC(=O)[C@@H]3CC3(F)F)nc2[nH]1` [I-228, (S)-2,2-difluoro-N-(2-methyl-7-((4-(1-methyl-1H-imidazol-4-yl)-2-(methylsulfonyl)phenyl)amino)-3H-imidazo[4,5-b]pyridin-5-yl)cyclopropane-1-carboxamide]: the Kd is 1 to 10 nM.

The molecule `CS(=O)(=O)N(c1ccccc1Nc1cc(Nc2cccc(C#N)n2)nc2[nH]c(C(F)F)nc12)C(F)F` [I-229, N-(2-((5-((6-cyanopyridin-2-yl)amino)-2-(difluoromethyl)-3H-imidazo[4,5-b]pyridin-7-yl)amino)phenyl)-N-(difluoromethyl)methanesulfonamide] had a Kd of 1 to 10 nM. `CN(c1cc(-c2cnn(C)c2)ccc1Nc1cc(NC(=O)[C@@H]2CC2(F)F)nc2[nH]c(C(F)F)nc12)S(C)(=O)=O` [I-230, (S)—N-(2-(difluoromethyl)-7-((4-(1-methyl-1H-pyrazol-4-yl)-2-(N-methylmethylsulfonamido)phenyl)amino)-3H-imidazo[4,5-b]pyridin-5-yl)-2,2-difluorocyclopropane-1-carboxamide]: the equilibrium dissociation constant (Kd) was in the range of 0.5 to 1 nM.

`CN(c1cc(-c2cnn(C)c2)ccc1Nc1cc(NC(=O)[C@H]2CC2(F)F)nc2[nH]c(C(F)F)nc12)S(C)(=O)=O` [I-231, (R)—N-(2-(difluoromethyl)-7-((4-(1-methyl-1H-pyrazol-4-yl)-2-(N-methylmethylsulfonamido)phenyl)amino)-3H-imidazo[4,5-b]pyridin-5-yl)-2,2-difluorocyclopropane-1-carboxamide] gave a Kd of 1 to 10 nM. As for `CS(=O)(=O)c1cc(C2CCOCC2)ccc1Nc1cc(NC(=O)C2CC2)nc2[nH]c(C(F)F)nc12` [I-232, N-(2-(difluoromethyl)-7-((2-(methylsulfonyl)-4-(tetrahydro-2H-pyran-4-yl)phenyl)amino)-3H-imidazo[4,5-b]pyridin-5-yl)cyclopropanecarboxamide], the Kd is 0.1 to 0.5 nM. `Cc1nc2c(Nc3ccc(-c4cnn(C)c4)cc3N(C)S(C)(=O)=O)cc(NC(=O)[C@@H]3CC3(F)F)nc2[nH]1` [I-233, (S)-2,2-difluoro-N-(2-methyl-7-((4-(1-methyl-1H-pyrazol-4-yl)-2-(N-methylmethylsulfonamido)phenyl)amino)-3H-imidazo[4,5-b]pyridin-5-yl)cyclopropane-1-carboxamide] came in with a Kd of 0.1 to 0.5 nM.

In turn, `Cc1nc2c(Nc3ccc(-c4cnn(C)c4)cc3N(C)S(C)(=O)=O)cc(NC(=O)[C@H]3CC3(F)F)nc2[nH]1` [I-234, (R)-2,2-difluoro-N-(2-methyl-7-((4-(1-methyl-1H-pyrazol-4-yl)-2-(N-methylmethylsulfonamido)phenyl)amino)-3H-imidazo[4,5-b]pyridin-5-yl)cyclopropane-1-carboxamide] came in with a Kd of 1 to 10 nM.

In turn, `CN(c1cc(-c2cnn(C)c2)ccc1Nc1cc(NC(=O)[C@H]2C[C@H]2F)nc2[nH]c(C(F)F)nc12)S(C)(=O)=O` [I-236, (1R, 2R)—N-(2-(difluoromethyl)-7-((4-(1-methyl-1H-pyrazol-4-yl)-2-(N-methylmethylsulfonamido)phenyl)amino)-3H-imidazo[4,5-b]pyridin-5-yl)-2-fluorocyclopropane-1-carboxamide] returned a Kd of 0.1 to 0.5 nM. For `Cn1ccc(-c2ccc(Nc3cc(NC(=O)[C@@H]4CC4(F)F)nc4[nH]c(C(F)F)nc34)c(S(C)(=O)=O)c2)n1` [I-237, (S)—N-(2-(difluoromethyl)-7-((4-(1-methyl-1H-pyrazol-3-yl)-2-(methylsulfonyl)phenyl)amino)-3H-imidazo[4,5-b]pyridin-5-yl)-2,2-difluorocyclopropane-1-carboxamide], the Kd lay in the range of 0.5 to 1 nM. As for `Cn1ccc(-c2ccc(Nc3cc(NC(=O)[C@H]4CC4(F)F)nc4[nH]c(C(F)F)nc34)c(S(C)(=O)=O)c2)n1` [I-238, (R)—N-(2-(difluoromethyl)-7-((4-(1-methyl-1H-pyrazol-3-yl)-2-(methylsulfonyl)phenyl)amino)-3H-imidazo[4,5-b]pyridin-5-yl)-2,2-difluorocyclopropane-1-carboxamide], the figure is 1 to 10 nM. Turning to `Cc1nc2c(Nc3ccc(-c4ccn(C)n4)cc3S(C)(=O)=O)cc(NC(=O)[C@@H]3CC3(F)F)nc2[nH]1` [I-239, (S)-2,2-difluoro-N-(2-methyl-7-((4-(1-methyl-1H-pyrazol-3-yl)-2-(methylsulfonyl)phenyl)amino)-3H-imidazo[4,5-b]pyridin-5-yl)cyclopropane-1-carboxamide], the Kd was in the range of 0.1 to 0.5 nM. In turn, `Cc1nc2c(Nc3ccc(-c4ccn(C)n4)cc3S(C)(=O)=O)cc(NC(=O)[C@H]3CC3(F)F)nc2[nH]1` [I-240, (R)-2,2-difluoro-N-(2-methyl-7-((4-(1-methyl-1H-pyrazol-3-yl)-2-(methylsulfonyl)phenyl)amino)-3H-imidazo[4,5-b]pyridin-5-yl)cyclopropane-1-carboxamide] gave a Kd of 1 to 10 nM. As for `Cc1nc2c(Nc3ccc(-c4nn(C)cc4C)cc3S(C)(=O)=O)cc(NC(=O)C3CC3)nc2[nH]1` [I-241, N-(7-((4-(1,4-dimethyl-1H-pyrazol-3-yl)-2-(methylsulfonyl)phenyl)amino)-2-methyl-3H-imidazo[4,5-b]pyridin-5-yl)cyclopropanecarboxamide], the figure is less than 0.1 nM.

(Values after patent US10647713B2 (Nimbus Lakshmi, Inc., priority 2016, dated 2020).)
